{"source": "patent US20170121768A1", "about": "“ATRIAL FIBRILLATION THERAPY” (The University of Birmingham, priority 2014, published 2017)", "key": {"[1]": {"tested_on": "Pitx2c+/- mouse heart (left atrium)", "assay": "Electrophysiological study in the isolated Langendorff-perfused beating heart, Pitx2c+/- mice", "description": "(§1) The inventors studied the effects of the sodium channel blocker flecainide in the isolated, beating heart of wild type mice and mice with a heterozygous deletion of the Pitx2c gene. This mouse model (provided by Nigel Brown, St George's London) is an established model for reduced Pitx2 mRNA expression that is susceptible to AF. […] PITX2c^+/− and WT hearts (3-4 months old), were rapidly excised and Langendorff-perfused to record left atrial (LA) monophasic action potential duration. In this preparation, the beating heart is perfused with a warm, oxygenated modified Krebs-Henseleit solution containing (in mmol/1): NaCl 118; NaHCO3 24.88; KH2PO 1.18; Glucose 5.55; Na-Pyruvate 5; MgSO4 0.83; CaCl2 1.8; KCl 3.52 (95% O2-5% CO2, pH 7.4) at constant perfusion pressure (100±5 mmHg) and coronary flow (4±0.5 ml/min). Thereby, detailed electrophysiological measurements can be taken for 1-2 hours in the beating, functioning, intact heart (perfusate temperature 37° C., perfusion flow rate 3-5 mL/min) (Fabritz et al., Basic Res Cardiol 2003; 98:25-32). An octapolar murine electrophysiology catheter (0.5 mm electrode spacing, CIB'ER MOUSE, NuMED, Hopkinton, N.Y., USA) was inserted into the right atrium (RA) and right ventricle for pacing. Atrial and ventricular electrograms and monophasic action potential (MAP) from the left atrium were simultaneously recorded. After instrumentation, the hearts were subjected to a stabilization period of 10 minutes, followed by observation of spontaneous sinus rhythm for 5 minutes to provoke repolarization-related arrhythmias. Then the right atrium was paced at constant physiological heart rates (80-120 ms paced cycle length) for 1.5 minutes of pacing per heart rate to record steady-state action potential duration, and premature right atrial stimulation was performed using trains of 8 beats following by a premature stimulus in 2 ms steps to determine the effective refractory period (ERP) and inducibility of arrhythmias. Arrhythmias>1 second were counted. The pacing protocol was repeated after adding flecainide acetate (1 μm) to the perfusate. Experiments were accepted for analysis of action potential duration and activation time if they met published quality criteria and if MAPs were stable. […] were accepted for analysis of action potentials and activation times, and signals>0.5 mV amplitude were accepted for evaluation of arrhythmias. Recordings were manually screened for arrhythmias. Atrial fibrillation was defined as >5 closely couple polymorphic consecutive atrial ectopic beats with a cycle length shorter than sinus-rhythm cycle length."}, "[2]": {"tested_on": "wild type mouse heart (left atrium)", "assay": "Electrophysiological study in the isolated Langendorff-perfused beating heart, wild type mice", "description": "as §1"}, "[3]": {"tested_on": "Pitx2c+/- left atria", "assay": "Transmembrane potential recordings in isolated, superfused left atria, Pitx2c+/-", "set-up": "species or system mouse", "details": "sharp electrodes", "procedure": "(§2) Transmembrane action potentials were recorded from isolated superfused left atria using borosilicate glass microelectrodes (tip resistance 15-30 MΩ), filled with 3 M KCl. […] LA were paced at different cycle lengths at 2 ms pulse width at 2× diastolic threshold through bipolar platinum electrodes. APD was analysed off line (spike 2, CED, UK). After 15 min pacing for equilibration, preparations were paced successively at increasing frequencies from 0.5 to 10 Hz, with 200 beats at each frequency to ensure steady state prior to recording."}, "[4]": {"tested_on": "wildtype left atria", "assay": "Transmembrane potential recordings in isolated, superfused left atria, wild type", "set-up": "species or system mouse", "details": "sharp electrodes", "procedure": "as §2"}}, "data": [{"smiles": "O=C(NCC1CCCCN1)c1cc(OCC(F)(F)F)ccc1OCC(F)(F)F", "note": "(centres unmarked) [flecainide]", "values": [{"measurement": "effective refractory period (ERP)", "setting": "[1]; Pitx2c+/- hearts after flecainide perfusion, compared with wild-type", "result": "increases effective refractory periods"}, {"measurement": "suppression of inducible atrial fibrillation", "setting": "[1]; Pitx2c+/- hearts with AF at baseline (8/21), flecainide acetate 1 μm in perfusate, premature atrial stimulation", "result": "suppressed atrial fibrillation in all Pitx2c+/− hearts"}, {"measurement": "atrial action potential duration (APD)", "setting": "[1]; Pitx2c+/- hearts, flecainide perfusion, paced cycle lengths 80-100-120 ms", "result": "does not alter atrial APD"}, {"measurement": "post-repolarization refractoriness", "setting": "[1]; Pitx2c+/- mice, 80 ms paced cycle length, flecainide perfusion", "result": 12, "unit": "ms"}, {"measurement": "atrial activation times", "setting": "[1]; Pitx2c+/- mice, after flecainide perfusion", "result": "marked effect"}, {"measurement": "atrial action potential duration (APD)", "setting": "[2]; WT hearts, flecainide perfusion, paced cycle lengths 80-100-120 ms", "result": "does not alter atrial APD"}, {"measurement": "post-repolarization refractoriness", "setting": "[2]; WT mice, 80 ms paced cycle length, flecainide perfusion", "result": 7.5, "unit": "ms"}, {"measurement": "hearts with arrhythmias", "setting": "[2]; wild type hearts with flecainide (baseline 4/16), arrhythmias >1 second counted", "result": "4/11"}, {"measurement": "suppression of inducible atrial fibrillation", "setting": "[2]; wild type hearts, flecainide acetate 1 μm in perfusate, premature atrial stimulation", "result": "did not suppress atrial fibrillation"}, {"measurement": "atrial activation times", "setting": "[2]; wild-type mice, after flecainide perfusion", "result": "negligible effect"}, {"measurement": "resting membrane potential", "setting": "[3]", "result": "did not alter resting membrane potential"}, {"measurement": "resting membrane potential", "setting": "[4]", "result": "did not alter resting membrane potential"}]}, {"smiles": "CC(C)NCC(O)c1ccc(NS(C)(=O)=O)cc1", "note": "(centres unmarked) [sotalol, d,l sotalol]", "values": [{"measurement": "atrial APD", "setting": "[1]; Pitx2c+/- hearts, sotalol 10 μM, three pairs of mice", "result": "did not alter atrial APD"}, {"measurement": "atrial APD", "setting": "[2]; WT hearts, sotalol 10 μM, three pairs of mice", "result": "prolonged atrial APD"}]}]}
